Assay results reported in US20160287589A1, “SUBSTITUTED-IMIDAZOPYRIDAZINES” (BAYER PHARMA AKTIENGESELLSCHAFT, priority 2013, published 2016).
pIC50: −log10 of the molar value.

Columns and labels:
MKNK1 [1] = target: T1, MKNK1 (Homo sapiens, UniProt Q9BUB5, T385D); experiment: MKNK1 kinase high ATP assay (TR-FRET-based); type: biochemical; conditions: Table 2c; 2 mM ATP, 15 min preincubation
T1 construct: GST (N); purchased Carna Biosciences 02-145; host or cells: insect cells (baculovirus expression system)
In short: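 TR-FRET read-out (anti-phospho-S6 Ser236 antibody, Eu/XL665) of biotin-peptide phosphorylation (0.06 μM) at high ATP (2 mM final). Enzyme was GST-MKNK1 full length, T344D, pre-bound to compound for 15 min before a 30 min reaction at 22 °C, pH 7.5. Inhibition scaled between no-inhibitor (0%) and no-enzyme (100%) wells.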

MKNK1 [2] = target: T1, MKNK1; experiment: MKNK1 kinase assay (MKNK1 TR-FRET assay); type: biochemical; conditions: Table 1c; 10 μM ATP, 15 min preincubation

T1 sequence (Q9BUB5 1-424 isoform Q9BUB5-2 T344D): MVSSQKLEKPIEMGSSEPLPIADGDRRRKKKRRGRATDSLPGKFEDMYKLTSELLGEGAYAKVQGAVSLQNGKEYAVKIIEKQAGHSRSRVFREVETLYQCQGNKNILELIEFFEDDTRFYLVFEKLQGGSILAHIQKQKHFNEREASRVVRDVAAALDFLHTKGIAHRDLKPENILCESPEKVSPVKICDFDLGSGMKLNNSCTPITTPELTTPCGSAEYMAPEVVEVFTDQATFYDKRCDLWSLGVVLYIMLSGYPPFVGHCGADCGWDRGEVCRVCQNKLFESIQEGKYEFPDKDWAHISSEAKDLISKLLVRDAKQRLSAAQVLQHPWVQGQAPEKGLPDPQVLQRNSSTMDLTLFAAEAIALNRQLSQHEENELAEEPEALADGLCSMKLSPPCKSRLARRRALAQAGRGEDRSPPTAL

SMILES | pIC50 (MKNK1 [1]) | pIC50 (MKNK1 [2])
CCN(CCOC)c1nccc2oc(-c3cnc4ccc(O[C@H]5Cc6ccccc6[C@H]5N)nn34)cc12 [III-112, 2-(6-{[(1R,2S)-1-Amino-2,3-dihydro-1H-inden-2-yl]oxy}imidazo[1,2-b]pyridazin-3-yl)-N-ethyl-N-(2-methoxyethyl)furo[3,2-c]pyridin-4-amine] | 7.06 | 7.81
CCN(CCOC)c1nccc2oc(-c3cnc4ccc(OC[C@@H]5CNCC(=O)N5)nn34)cc12 [III-113, (6S)-6-{[(3-{4-[Ethyl(2-methoxyethyl)amino]furo[3,2-c]pyridin-2-yl}imidazo[1,2-b]pyridazin-6-yl)oxy]methyl}piperazin-2-one] | 9.52 | 9.30
CN(C)[C@H]1CCN(c2nccc3oc(-c4cnc5ccc(OCCCS(C)(=O)=O)nn45)cc23)C1 [III-114, (3S)-N,N-dimethyl-1-(2-{6-[3-(methylsulfonyl)propoxy]imidazo[1,2-b]pyridazin-3-yl}furo[3,2-c]pyridin-4-yl)pyrrolidin-3-amine] | 7.63 | 7.98
C[C@H](N)COc1ccc2ncc(-c3cc4c(N5CC[C@H](N(C)C)C5)nccc4o3)n2n1 [III-115, (3S)-1-[2-(6-{[(2S)-2-aminopropyl]oxy}imidazo [1,2-b]pyridazin-3-yl)furo[3,2-c]pyridin-4-yl]-N,N-dimethylpyrrolidin-3-amine] | 7.08 | 7.73
C[C@H](N)COc1ccc2ncc(-c3cc4c(N5CCN(C(C)(C)C)CC5)nccc4o3)n2n1 [III-116, (2S)-1-({3-[4-(4-tert-butylpiperazin-1-yl)furo[3,2-c]pyridin-2-yl]imidazo[1,2-b]pyridazin-6-yl}oxy)propan-2-amine] | 6.94 | 7.57
C[C@H](N)COc1ccc2ncc(-c3cc4c(N5CCO[C@H](C)C5)nccc4o3)n2n1 [III-117, (2S)-1-[(3-{4-[(2R)-2-methylmorpholin-4-yl]furo[3,2-c]pyridin-2-yl}imidazo[1,2-b]pyridazin-6-yl)oxy]propan-2-amine] | 7.40 | 7.67
C[C@@H]1CN(c2nccc3oc(-c4cnc5ccc(OC[C@H]6CCC(=O)N6)nn45)cc23)CCO1 [III-118, (5R)-5-{[(3-{4-[(2R)-2-methylmorpholin-4-yl]furo[3,2-c]pyridin-2-yl}imidazo[1,2-b]pyridazin-6-yl)oxy]methyl}pyrrolidin-2-one] | 9.00 | 8.60
C[C@@H]1CN(c2nccc3oc(-c4cnc5ccc(OCCCS(C)(=O)=O)nn45)cc23)CCO1 [III-119, 3-{4-[(2R)-2-methylmorpholin-4-yl]furo[3,2-c]pyridin-2-yl}-6-[3-(methylsulfonyl)propoxy] imidazo[1,2-b]pyridazine] | 7.77 | 8.06
COc1ccc2ncc(-c3cc4c(N5CCO[C@H](C)C5)nccc4o3)n2n1 [III-120, 6-methoxy-3-{4-[(2R)-2-methylmorpholin-4-yl]furo[3,2-c]pyridin-2-yl}imidazo[1,2-b]pyridazine] | 8.13 | 7.95
C[C@@H]1CN(c2nccc3oc(-c4cnc5ccc(OC[C@@H](C)N)nn45)cc23)CCO1 [III-121, (2R)-1-[(3-{4-[(2R)-2-methylmorpholin-4-yl]furo[3,2-c]pyridin-2-yl}imidazo[1,2-b]pyridazin-6-yl)oxy]propan-2-amine] | 7.89 | 7.94
C[C@@H]1CN(c2nccc3oc(-c4cnc5ccc(O[C@H]6C[C@H](N)C6)nn45)cc23)CCO1 [III-122, trans-3-[(3-{4-[(2R)-2-methylmorpholin-4-yl]furo[3,2-c]pyridin-2-yl}imidazo[1,2-b]pyridazin-6-yl)oxy]cyclobutanamine] | 7.89 | 7.91
C[C@H]1CN(c2nccc3oc(-c4cnc5ccc(OC[C@H]6CCC(=O)N6)nn45)cc23)CCO1 [III-123, (5R)-5-{[(3-{4-[(2S)-2-methylmorpholin-4-yl]furo[3,2-c]pyridin-2-yl}imidazo[1,2-b]pyridazin-6-yl)oxy]methyl}pyrrolidin-2-one] | 9.30 | 8.66
C[C@@H](N)COc1ccc2ncc(-c3cc4c(N5CCOC(C)(C)C5)nccc4o3)n2n1 [III-124, (2R)-1-({3-[4-(2,2-dimethylmorpholin-4-yl)furo[3,2-c]pyridin-2-yl]imidazo[1,2-b]pyridazin-6-yl}oxy)propan-2-amine] | 7.86 | 7.77
C[C@@H]1CN(c2nccc3oc(-c4cnc5ccc(OC[C@@H]6CCC(=O)N6)nn45)cc23)CCO1 [III-125, (5S)-5-{[(3-{4-[(2R)-2-methylmorpholin-4-yl]furo[3,2-c]pyridin-2-yl}imidazo[1,2-b]pyridazin-6-yl)oxy]methyl}pyrrolidin-2-one] | 8.15 | 8.13
CC1(C)CN(c2nccc3oc(-c4cnc5ccc(OCC(F)(F)F)nn45)cc23)CCN1 [III-126, 3-[4-(3,3-dimethylpiperazin-1-yl)furo[3,2-c]pyridin-2-yl]-6-(2,2,2-trifluoroethoxy)imidazo [1,2-b]pyridazine] | 8.59 | 8.28
C[C@H](N)COc1ccc2ncc(-c3cc4c(N5CCOC(C)(C)C5)nccc4o3)n2n1 [III-128, (2S)-1-({3-[4-(2,2-dimethylmorpholin-4-yl)furo[3,2-c]pyridin-2-yl]imidazo[1,2-b]pyridazin-6-yl}oxy)propan-2-amine] | 7.93 | 7.89
CC1(C)CN(c2nccc3oc(-c4cnc5ccc(O[C@H]6C[C@H](N)C6)nn45)cc23)CCO1 [III-129, trans-3-({3-[4-(2,2-dimethylmorpholin-4-yl)furo[3,2-c]pyridin-2-yl]imidazo[1,2-b]pyridazin-6-yl}oxy)cyclobutanamine] | 7.85 | 7.77
COc1ccc2ncc(-c3cc4c(N5CCNC(C)(C)C5)nccc4o3)n2n1 [III-130, 3-[4-(3,3-dimethylpiperazin-1-yl)furo[3,2-c]pyridin-2-yl]-6-methoxy-imidazo[1,2-b]pyridazine] | 8.82 | 8.28
CC1(C)CN(c2nccc3oc(-c4cnc5ccc(OCCCS(C)(=O)=O)nn45)cc23)CCN1 [III-131, 3-[4-(3,3-dimethylpiperazin-1-yl)furo[3,2-c]pyridin-2-yl]-6-[3-(methylsulfonyl)propoxy] imidazo[1,2-b]pyridazine] | 8.15 | 7.92
CC1(C)CN(c2nccc3oc(-c4cnc5ccc(OC[C@@H]6CCC(=O)N6)nn45)cc23)CCO1 [III-132, (5S)-5-[({3-[4-(2,2-dimethylmorpholin-4-yl)furo[3,2-c]pyridin-2-yl]imidazo[1,2-b]pyridazin-6-yl}oxy)methyl]pyrrolidin-2-one] | 8.60 | 8.17
COc1ccc2ncc(-c3cc4c(N5CCN[C@@H](C)C5)nccc4o3)n2n1 [III-133, 6-methoxy-3-{4-[(3S)-3-methylpiperazin-1-yl]furo[3,2-c]pyridin-2-yl}imidazo[1,2-b]pyridazine] | 7.88 | 8.57
CC1(C)CN(c2nccc3oc(-c4cnc5ccc(OC[C@@H]6CCC(=O)N6)nn45)cc23)CCN1 [III-134, (5S)-5-[({3-[4-(3,3-dimethylpiperazin-1-yl)furo[3,2-c]pyridin-2-yl]imidazo[1,2-b]pyridazin-6-yl}oxy)methyl]pyrrolidin-2-one] | 9.00 | 8.70
CC1(C)CN(c2nccc3oc(-c4cnc5ccc(OCCCS(C)(=O)=O)nn45)cc23)CCO1 [III-135, 3-[4-(2,2-dimethylmorpholin-4-yl)furo[3,2-c]pyridin-2-yl]-6-[3-(methylsulfonyl)propoxy] imidazo[1,2-b]pyridazine] | 7.89 | 7.52
COC[C@@H]1CCCN1c1nccc2oc(-c3cnc4ccc(O[C@H](C)CN)nn34)cc12 [III-136, (2R)-2-[(3-{4-[(2S)-2-(methoxymethyl)pyrrolidin-1-yl]furo[3,2-c]pyridin-2-yl}imidazo[1,2-b]pyridazin-6-yl)oxy]propan-1-amine] | 6.91 | 7.28
CCN(CCOC)c1nccc2oc(-c3cnc4ccc(OCCC[S@@](C)(=O)=NC#N)nn34)cc12 [III-137, [{3-[(3-{4-[ethyl(2-methoxyethyl)ami-no]furo[3,2-c]pyridin-2-yl}imidazo[1,2-b]pyridazin-6-yl)oxy]propyl}(methyl)oxido-λ^6-sulfanylidene]cyanamide] | 9.22 | 8.57
CCN(CCOC)c1nccc2oc(-c3cnc4ccc(OC[C@@H]5CCCN5)nn34)cc12 [III-139, N-ethyl-N-(2-methoxyethyl)-2-{6-[(2S)-pyrrolidin-2-ylmeth-oxy]imidazo[1,2-b]pyridazin-3-yl}furo[3,2-c]pyridin-4-amine] | 8.77 | 8.52
CC1(C)CN(c2nccc3oc(-c4cnc5ccc(OC[C@H]6CCC(=O)N6)nn45)cc23)CCN1 [III-141, (5R)-5-[({3-[4-(3,3-dimethylpiperazin-1-yl)furo[3,2-c]pyridin-2-yl]imidazo[1,2-b]pyridazin-6-yl}oxy)methyl]pyrrolidin-2-one] | 8.85 | 8.48
CC1(C)CN(c2nccc3oc(-c4cnc5ccc(OC[C@H]6CCC(=O)N6)nn45)cc23)CCO1 [III-142, (5R)-5-[({3-[4-(2,2-dimethylmorpholin-4-yl)furo[3,2-c]pyridin-2-yl]imidazo[1,2-b]pyridazin-6-yl}oxy)methyl]pyrrolidin-2-one] | 9.30 | 8.80
C[C@H]1CN(c2nccc3oc(-c4cnc5ccc(OCCCS(C)(=O)=O)nn45)cc23)CCN1 [III-143, 3-{4-[(3S)-3-methylpiperazin-1-yl]furo[3,2-c]pyridin-2-yl}-6-[3-(methylsulfonyl)propoxy] imidazo[1,2-b]pyridazine] | 8.00 | 8.43
